Type in all cases: biochemical
One experiment concerns the target T1, Recombinant human HDAC1 (Homo sapiens, UniProt Q13547).
T1 construct: FLAG (C); made in house
As to the kind of experiment: Human HDAC enzyme inhibitor Fluor-de-Lys assay, HDAC1. As to conditions: recombinant human HDAC1, Fluor-de-Lys assay. The method in brief:
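Fluor-de-Lys format at room temperature (23° C.): compounds titrated 10-point, 1:3, preincubated with HDAC before substrate addition; HDAC1 run at 0.3 nM enzyme with 20 μM BML-KI104. Developer with excess HDAC inhibitor ends the reaction, and trypsin-liberated AMC fluorescence is the read-out.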

In another experiment the target is T2, Recombinant human HDAC2 (Homo sapiens, UniProt Q92769).
T2 construct: Full length human HDAC2-FLAG was expressed in baculovirus infected Sf9 cells; FLAG (C); made in house; host or cells: Sf9 (baculovirus)
T2 sequence (Q92769 whole entry): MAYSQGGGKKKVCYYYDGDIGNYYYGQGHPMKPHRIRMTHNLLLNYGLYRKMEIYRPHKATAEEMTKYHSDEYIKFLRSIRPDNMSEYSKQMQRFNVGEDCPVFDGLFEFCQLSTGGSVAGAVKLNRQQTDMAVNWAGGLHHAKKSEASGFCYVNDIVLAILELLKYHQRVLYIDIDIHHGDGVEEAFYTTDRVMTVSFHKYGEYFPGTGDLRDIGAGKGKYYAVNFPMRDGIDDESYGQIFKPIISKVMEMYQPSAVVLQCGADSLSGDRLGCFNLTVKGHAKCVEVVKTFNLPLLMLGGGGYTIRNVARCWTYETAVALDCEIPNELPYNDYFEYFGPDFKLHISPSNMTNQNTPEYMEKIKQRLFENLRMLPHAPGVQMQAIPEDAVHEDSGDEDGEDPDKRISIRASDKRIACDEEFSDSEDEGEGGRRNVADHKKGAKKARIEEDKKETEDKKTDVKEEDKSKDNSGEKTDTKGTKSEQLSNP
Put plainly: Human HDAC enzyme inhibitor Fluor-de-Lys assay, HDAC2. The settings on record: recombinant human HDAC2, Fluor-de-Lys assay. The method in brief:
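Fluor-de-Lys format at room temperature (23° C.): compounds titrated 10-point, 1:3, preincubated with HDAC before substrate addition. Developer with excess HDAC inhibitor ends the reaction, and trypsin-liberated AMC fluorescence is the read-out.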

Another experiment has as its target T3, HDAC6 (Homo sapiens, UniProt Q9UBN7).
T3 sequence (Q9UBN7 1-1215): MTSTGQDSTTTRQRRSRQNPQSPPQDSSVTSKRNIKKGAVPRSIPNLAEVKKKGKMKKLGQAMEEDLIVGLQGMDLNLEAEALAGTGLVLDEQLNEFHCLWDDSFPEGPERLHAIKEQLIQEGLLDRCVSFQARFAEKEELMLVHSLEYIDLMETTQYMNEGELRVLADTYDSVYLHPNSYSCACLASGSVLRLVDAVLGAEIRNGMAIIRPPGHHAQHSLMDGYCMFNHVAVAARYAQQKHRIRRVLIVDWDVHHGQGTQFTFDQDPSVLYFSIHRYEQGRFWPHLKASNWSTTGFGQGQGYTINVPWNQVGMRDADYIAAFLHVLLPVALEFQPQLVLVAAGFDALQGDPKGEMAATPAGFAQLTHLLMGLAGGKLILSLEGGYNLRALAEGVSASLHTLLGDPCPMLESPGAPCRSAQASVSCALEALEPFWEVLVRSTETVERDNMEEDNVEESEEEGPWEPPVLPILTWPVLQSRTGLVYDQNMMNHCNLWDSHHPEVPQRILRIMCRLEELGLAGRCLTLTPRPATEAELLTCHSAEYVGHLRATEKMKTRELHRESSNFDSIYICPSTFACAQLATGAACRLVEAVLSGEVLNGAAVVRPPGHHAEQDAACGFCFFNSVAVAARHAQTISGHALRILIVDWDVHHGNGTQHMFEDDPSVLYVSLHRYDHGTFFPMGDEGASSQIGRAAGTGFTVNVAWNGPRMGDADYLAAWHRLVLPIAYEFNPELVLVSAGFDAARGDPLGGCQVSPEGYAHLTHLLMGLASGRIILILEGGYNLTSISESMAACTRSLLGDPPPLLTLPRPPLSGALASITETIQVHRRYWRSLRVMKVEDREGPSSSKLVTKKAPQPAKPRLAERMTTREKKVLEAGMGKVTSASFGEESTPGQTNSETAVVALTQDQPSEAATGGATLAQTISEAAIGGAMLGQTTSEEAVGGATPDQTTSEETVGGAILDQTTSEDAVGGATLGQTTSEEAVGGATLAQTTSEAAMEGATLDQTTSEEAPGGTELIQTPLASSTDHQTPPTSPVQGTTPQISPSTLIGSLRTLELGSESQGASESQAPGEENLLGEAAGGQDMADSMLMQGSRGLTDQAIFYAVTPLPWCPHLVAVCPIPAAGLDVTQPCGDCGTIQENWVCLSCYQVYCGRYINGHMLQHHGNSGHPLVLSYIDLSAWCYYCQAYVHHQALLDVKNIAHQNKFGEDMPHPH
As to the kind of experiment: Human HDAC enzyme inhibitor Fluor-de-Lys assay, HDAC6. As to conditions: HDAC6, Fluor-de-Lys assay.

Another experiment addresses T4, Recombinant human HDAC8 (Homo sapiens, UniProt Q9BY41).
T4 construct: purchased Enzo Life Sciences BML-SE145-0100
T4 sequence (Q9BY41 1-377): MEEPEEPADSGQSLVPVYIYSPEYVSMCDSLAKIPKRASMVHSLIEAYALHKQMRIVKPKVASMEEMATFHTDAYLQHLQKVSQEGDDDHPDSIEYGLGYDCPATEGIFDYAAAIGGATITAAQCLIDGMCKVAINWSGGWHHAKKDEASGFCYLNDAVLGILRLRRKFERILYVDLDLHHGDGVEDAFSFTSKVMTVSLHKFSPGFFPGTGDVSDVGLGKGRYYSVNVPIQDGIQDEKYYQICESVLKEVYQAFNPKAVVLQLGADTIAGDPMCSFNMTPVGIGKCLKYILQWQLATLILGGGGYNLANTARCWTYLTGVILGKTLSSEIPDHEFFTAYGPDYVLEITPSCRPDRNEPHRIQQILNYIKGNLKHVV
Put plainly: Human HDAC enzyme inhibitor Fluor-de-Lys assay, HDAC8. The settings on record: recombinant human HDAC8, Fluor-de-Lys assay.

Bounds are passed on as bounds.

T1 sequence (Q13547 whole entry): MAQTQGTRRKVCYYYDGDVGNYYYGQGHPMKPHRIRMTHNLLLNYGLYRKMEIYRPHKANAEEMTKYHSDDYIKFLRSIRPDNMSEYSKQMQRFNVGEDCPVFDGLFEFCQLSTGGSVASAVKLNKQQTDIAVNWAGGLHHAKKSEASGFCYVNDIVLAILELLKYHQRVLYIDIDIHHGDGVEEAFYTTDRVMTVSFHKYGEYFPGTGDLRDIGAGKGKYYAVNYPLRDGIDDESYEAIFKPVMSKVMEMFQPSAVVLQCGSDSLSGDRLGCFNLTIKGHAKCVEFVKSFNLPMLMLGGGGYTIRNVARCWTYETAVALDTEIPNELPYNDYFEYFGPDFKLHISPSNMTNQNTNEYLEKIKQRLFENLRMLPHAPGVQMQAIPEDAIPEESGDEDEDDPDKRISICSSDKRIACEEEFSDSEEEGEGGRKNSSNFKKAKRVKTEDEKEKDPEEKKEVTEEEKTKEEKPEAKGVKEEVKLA

One may read the IC50 as the concentration that gives 50% inhibition. `CCC(=O)CCCCC[C@H](NC(=O)C1=NOC2(CCN(C(C)=O)CC2)C1)c1ncc(-c2ccccc2)[nH]1` [Compound 380]: the IC50 on Recombinant human HDAC1 was 69.8 nM; on Recombinant human HDAC2, 326 nM; on HDAC6, 16200 nM; at Recombinant human HDAC8 it was 6330 nM.
For `CCC(=O)CCCCC[C@H](NCC1CC1)c1ncc(-c2cc3ccc(C)nc3cc2OC)[nH]1` [Compound 398, (S)-9-((cyclopropylmethyl)amino)-9-(5-(7-methoxy-2-methylquinolin-6-yl)-1H-imidazol-2-yl)nonan-3-one], the IC50 at Recombinant human HDAC1 was 186 nM; at Recombinant human HDAC2 it was 810 nM; at HDAC6, above 900 nM; on Recombinant human HDAC8 it was above 900 nM.
As for `CCC(=O)CCCCC[C@H](NC(=O)C1=NOC2(CCN(C)CC2)C1)c1ncc(-c2ccc(-c3ccncc3)cc2OC)o1` [Compound 395], the IC50 on Recombinant human HDAC1 is 2.42 nM; on Recombinant human HDAC2, 36.3 nM; against HDAC6, above 900 nM; on Recombinant human HDAC8, above 900 nM.
Take `CCC(=O)CCCCCC(NC(=O)C1CCC2(CC1)OC(=O)c1ncccc12)c1nnc(-c2cc3ccccc3nc2OC)o1` (stereo not drawn) [Compound 365]: the IC50 on Recombinant human HDAC1 stood at 61.2 nM; on Recombinant human HDAC2, 208 nM; against HDAC6, 1940 nM; at Recombinant human HDAC8, 28400 nM.
With `CCC(=O)CCCCC[C@H](NC(=O)CCN1C(=O)C(CC)=NC12CCOCC2)c1ncc(-c2ccccc2)[nH]1` [Compound 384], the IC50 on Recombinant human HDAC1 came out at 37.3 nM; at Recombinant human HDAC2 it was 154 nM; at HDAC6, 10300 nM; on Recombinant human HDAC8 it was 8930 nM.
As to `CCC(=O)CCCCC[C@H](NC(=O)C1=NOC2(CCN(C)CC2)C1)c1ncc(-c2ccc(Cl)cc2OC)o1` [Compound 390], the IC50 was 18 nM at Recombinant human HDAC1, 159 nM at Recombinant human HDAC2, 309 nM at HDAC6 and above 900 nM on Recombinant human HDAC8.
Turning to `CCC(=O)CCCCCC(N)(COC)c1ncc(-c2cc3ccc(C)nc3cc2OC)[nH]1` (stereo not drawn) [Compound 414, 9-amino-10-methoxy-9-[5-(7-methoxy-2-methylquinolin-6-yl)-1H-imidazol-2-yl]decan-3-one], the IC50 at Recombinant human HDAC1, on Recombinant human HDAC2, on HDAC6 and on Recombinant human HDAC8 was above 900 nM in each case.
Take `CCC(=O)CCCCC[C@H](NC(=O)[C@H]1CC[C@]2(CC1)OC(=O)c1ncccc12)c1nnc(-c2cc3ccccc3nc2OC)o1` [Compound 367]: the IC50 on Recombinant human HDAC1 amounted to 25.9 nM; on Recombinant human HDAC2, 67.6 nM; against HDAC6 it was 2110 nM; on Recombinant human HDAC8, 21400 nM.
As for `CCC(=O)CCCCC[C@H](NC(=O)C1=NOC2(CCN(CC3CC3)CC2)C1)c1ncc(-c2cc3ccc(=O)n(C)c3cc2F)o1` [Compound 387], the IC50 at Recombinant human HDAC1 was 25.8 nM; at Recombinant human HDAC2, 207 nM; against HDAC6, above 900 nM; on Recombinant human HDAC8, above 900 nM.

Values taken from patent US12590099B2, “Inhibitors of histone deacetylase useful for the treatment or prevention of HIV infection” (Merck Sharp & Dohme LLC, priority 2018, dated 2026).
